# Laboratory results reported in ChEMBL document CHEMBL5380875, “Discovery of a Potent and Oral Available Complex I OXPHOS Inhibitor That Abrogates Tumor Growth and Circumvents MEKi Resistance” (J Med Chem, 2023).
# Active and inactive are the calls of the source. No cut-off for these calls is given here.
# Tests used:
# [1] = Half life in ICR mouse at 10 mg/kg, po measured for 24 hrs by LC-MS/MS analysis; assay type: ADME, organism-based; conditions: in vivo
# NCI-H441 [2] = assay: Potentiation of trametinib-induced cytotoxicity against human NCI-H441 cells with high-OXPHOS harboring KRAS G12V mutant assessed as reduction in cell viability at 10 to 20 uM incubated for 72 hrs by CellTiter 96 cell proliferation assay; assay type: functional, cell-based; conditions: dose 10-20 µM
# [3] = Cmax in ICR mouse at 1 mg/kg, iv measured for 24 hrs by LC-MS/MS analysis; assay type: ADME, organism-based; set-up: dose 1 mg/kg, time 24 hrs, route iv; conditions: in vivo
# NCI-H460 [4] = assay: Induction of apoptosis in human NCI-H460 cells with high-OXPHOS harboring KRAS Q61H mutant assessed as early apoptotic cells at 20 nM incubated for 72 hrs by Annexin V-FITC/propidium iodide staining based flow cytometry analysis (reference value: 1.95%); assay type: functional
# [5] = Toxicity in mouse xenografted with human NCI-H460 cells with high-OXPHOS assessed as pathological changes in lung at 30 mg/kg, po bid administered for 18 days by H and E staining based analysis; assay type: organism-based; conditions: in vivo, 432 h, time 18 day
# Cytochrome P450 2C19 = Cytochrome P450 2C19 (Homo sapiens, UniProt P33261); assay: Inhibition of CYP2C19 in human liver microsomes; assay type: ADME, Microsome
# Cytochrome P450 2C19, sequence (P33261 whole entry): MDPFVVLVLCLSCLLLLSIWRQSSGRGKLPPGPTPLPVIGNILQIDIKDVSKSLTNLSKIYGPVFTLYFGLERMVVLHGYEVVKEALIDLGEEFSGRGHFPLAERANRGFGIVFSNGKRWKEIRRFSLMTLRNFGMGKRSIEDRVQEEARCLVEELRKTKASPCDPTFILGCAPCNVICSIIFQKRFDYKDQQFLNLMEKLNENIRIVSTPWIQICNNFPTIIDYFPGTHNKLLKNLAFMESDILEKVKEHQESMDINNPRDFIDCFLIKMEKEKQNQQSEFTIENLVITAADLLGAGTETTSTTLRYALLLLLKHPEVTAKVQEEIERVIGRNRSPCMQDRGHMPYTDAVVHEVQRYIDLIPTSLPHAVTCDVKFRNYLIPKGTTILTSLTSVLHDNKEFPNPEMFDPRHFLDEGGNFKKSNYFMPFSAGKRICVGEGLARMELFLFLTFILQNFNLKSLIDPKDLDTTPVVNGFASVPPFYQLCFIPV
# [6] = Toxicity in mouse xenografted with human NCI-H460 cells with high-OXPHOS assessed as reduction in body weight at 30 mg/kg, po bid administered for 18 days; assay type: organism-based; conditions: in vivo, 432 h, time 18 day
# A549 [7] = assay: Induction of apoptosis in human Trametinib-resistant A549 cells with high-OXPHOS harboring KRAS G12S mutant assessed as late apoptotic cells at 20 nM incubated for 72 hrs in presence of trametinib by Annexin V-FITC/propidium iodide staining based flow cytometry analysis (reference value: 4.31%); assay type: functional
# NCI-H460 [8] = assay: Inhibition of mitochondrial complex I NADH-ubiquinone oxidoreductase in human NCI-H460 cells at 1 uM incubated for 12 hrs by seahorse XF96 metabolic flux analyzer relative to control; assay type: cell-based
# NCI-H460 [9] = assay: Inhibition of mitochondrial respiration in human NCI-H460 cells with high-OXPHOS assessed as reduction in spare oxygen consumption rate capacity incubated for 12 hrs by seahorse XF96 flux analyzer; assay type: functional, cell-based; conditions: dose 50-200 nM
# Cytochrome P450 2C9 = Cytochrome P450 2C9 (Homo sapiens, UniProt P11712); assay: Inhibition of CYP2C9 in human liver microsomes; assay type: ADME, Microsome
# Cytochrome P450 2C9, sequence (P11712 whole entry): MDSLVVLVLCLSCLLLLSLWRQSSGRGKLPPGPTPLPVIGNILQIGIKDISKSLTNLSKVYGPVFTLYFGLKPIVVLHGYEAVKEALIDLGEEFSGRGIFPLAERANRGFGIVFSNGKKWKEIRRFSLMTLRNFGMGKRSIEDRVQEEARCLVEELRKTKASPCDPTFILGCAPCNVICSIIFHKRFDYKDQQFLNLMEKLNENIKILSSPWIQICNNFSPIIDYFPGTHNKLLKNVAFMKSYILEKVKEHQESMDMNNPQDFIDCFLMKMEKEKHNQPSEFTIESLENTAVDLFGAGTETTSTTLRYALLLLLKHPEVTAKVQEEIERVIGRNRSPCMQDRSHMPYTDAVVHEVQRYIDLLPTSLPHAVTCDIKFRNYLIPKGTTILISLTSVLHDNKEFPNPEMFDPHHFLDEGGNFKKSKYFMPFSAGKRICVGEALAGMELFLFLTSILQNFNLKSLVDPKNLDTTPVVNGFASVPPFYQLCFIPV
# [10] = Toxicity in mouse xenografted with human NCI-H460 cells with high-OXPHOS assessed as reduction in serum AST level at 30 mg/kg, po bid administered for 18 days; assay type: organism-based; conditions: in vivo, 432 h, time 18 day
# NCI-H441 [11] = assay: Inhibition of colony formation in human NCI-H441 cells with high-OXPHOS harboring KRAS G12V mutant incubated for 10 to 14 days in presence of trametinib by crystal violet staining based analysis; assay type: functional, cell-based; conditions: time 10-14 day
# NCI-H441 [12] = assay: Induction of apoptosis in human NCI-H441 cells with high-OXPHOS assessed as late apoptotic cells at 30 nM incubated for 48 hrs by Annexin V-FITC/propidium iodide staining based flow cytometry analysis (reference value: 9.27%); assay type: functional
# Cytochrome P450 3A4 = Cytochrome P450 3A4 (Homo sapiens, UniProt P08684); assay: Inhibition of CYP3A4 in human liver microsomes using midazolam as substrate; assay type: ADME, Microsome
# Cytochrome P450 3A4, sequence (P08684 whole entry): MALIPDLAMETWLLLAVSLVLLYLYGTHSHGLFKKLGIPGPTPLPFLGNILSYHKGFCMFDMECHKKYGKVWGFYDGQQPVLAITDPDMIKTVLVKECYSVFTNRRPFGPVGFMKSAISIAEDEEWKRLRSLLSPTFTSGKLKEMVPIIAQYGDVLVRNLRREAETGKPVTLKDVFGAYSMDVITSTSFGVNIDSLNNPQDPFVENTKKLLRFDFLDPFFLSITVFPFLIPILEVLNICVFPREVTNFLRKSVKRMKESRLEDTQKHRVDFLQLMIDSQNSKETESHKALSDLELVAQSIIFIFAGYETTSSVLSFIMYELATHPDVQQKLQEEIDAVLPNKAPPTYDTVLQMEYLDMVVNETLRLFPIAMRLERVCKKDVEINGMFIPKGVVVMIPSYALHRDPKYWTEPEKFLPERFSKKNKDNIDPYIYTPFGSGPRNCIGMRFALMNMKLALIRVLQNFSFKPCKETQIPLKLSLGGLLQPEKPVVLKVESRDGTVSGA
# NCI-H460 [13] = assay: Inhibition of mitochondrial complex IV in human NCI-H460 cells at 1 uM incubated for 12 hrs by seahorse XF96 metabolic flux analyzer relative to control; assay type: cell-based
# [14] = Apparent volume of distribution in ICR mouse at 1 mg/kg, iv measured for 24 hrs by LC-MS/MS analysis; assay type: ADME, organism-based; conditions: in vivo, read-out: Vz
# [15] = Toxicity in mouse xenografted with human NCI-H460 cells with high-OXPHOS assessed as reduction in body weight at 30 mg/kg, po bid administered for 18 days in presence of trametinib; assay type: organism-based; conditions: in vivo, 432 h, time 18 day
# [16] = MRT (0 to 24 hrs) in ICR mouse at 1 mg/kg, iv measured for 24 hrs by LC-MS/MS analysis; assay type: ADME, organism-based; conditions: in vivo
# NCI-H441 [17] = assay: Inhibition of mitochondrial respiration in human NCI-H441 cells with high-OXPHOS assessed as reduction in basal oxygen consumption rate incubated for 12 hrs by seahorse XF96 flux analyzer; assay type: functional, cell-based; conditions: dose 50-200 nM
# A549 [18] = assay: Inhibition of mitochondrial respiration in human Trametinib-resistant A549 cell assessed as reduction in basal oxygen consumption rate at 50 to 200 nM incubated for 12 hrs by seahorse XF96 flux analyzer; assay type: functional, cell-based; conditions: dose 50-200 nM
# NCI-H441 [19] = assay: Inhibition of mitochondrial respiration in human NCI-H441 cells with high-OXPHOS assessed as reduction in maximal oxygen consumption rate incubated for 12 hrs by seahorse XF96 flux analyzer; assay type: functional, cell-based; conditions: dose 50-200 nM
# NCI-H441 [20] = assay: Induction of apoptosis in human NCI-H441 cells with high-OXPHOS assessed as early apoptotic cells at 30 nM incubated for 48 hrs by Annexin V-FITC/propidium iodide staining based flow cytometry analysis (reference value: 1.67%); assay type: functional
# [21] = Toxicity in mouse xenografted with human NCI-H460 cells with high-OXPHOS assessed as pathological changes in liver at 30 mg/kg, po bid administered for 18 days by H and E staining based analysis; assay type: organism-based; conditions: in vivo, 432 h, time 18 day
# NCI-H460 [22] = assay: Inhibition of mitochondrial respiration in human NCI-H460 cells with high-OXPHOS assessed as reduction in maximal oxygen consumption rate incubated for 12 hrs by seahorse XF96 flux analyzer; assay type: functional, cell-based; conditions: dose 50-200 nM
# NCI-H460 [23] = assay: Antiproliferative activity against human NCI-H460 cells with high-OXPHOS assessed as reduction in cell viability incubated for 5 days by CellTiter 96 cell proliferation assay; assay type: functional, cell-based; conditions: NCI-H460, 120 h
# NCI-H441 [24] = assay: Inhibition of mitochondrial respiration in human NCI-H441 cells with high-OXPHOS assessed as reduction in spare oxygen consumption rate capacity incubated for 12 hrs by seahorse XF96 flux analyzer; assay type: functional, cell-based; conditions: dose 50-200 nM
# A549 [25] = assay: Induction of apoptosis in human Trametinib-resistant A549 cells with high-OXPHOS harboring KRAS G12S mutant assessed as early apoptotic cells at 20 nM incubated for 72 hrs in presence of trametinib by Annexin V-FITC/propidium iodide staining based flow cytometry analysis (reference value: 4.31%); assay type: functional
# NCI-H441 [26] = assay: Inhibition of colony formation in human NCI-H441 cells with high-OXPHOS incubated for 7 days by crystal violet staining based analysis; assay type: functional, cell-based; conditions: dose 250-1000 nM, time 7.0 day
# NCI-H460 [27] = assay: Induction of apoptosis in human NCI-H460 cells with high-OXPHOS assessed as early apoptotic cells at 30 nM incubated for 48 hrs by Annexin V-FITC/propidium iodide staining based flow cytometry analysis (reference value: 3.55%); assay type: functional
# [28] = Half life in ICR mouse at 1 mg/kg, iv measured for 24 hrs by LC-MS/MS analysis; assay type: ADME, organism-based; conditions: in vivo
# [29] = Cmax in ICR mouse at 10 mg/kg, po measured for 24 hrs by LC-MS/MS analysis; assay type: ADME, organism-based; set-up: time 24 hrs, dose 10 mg/kg, route po; conditions: in vivo
# [30] = Toxicity in mouse xenografted with human NCI-H460 cells with high-OXPHOS assessed as reduction in serum BUN level at 30 mg/kg, po bid administered for 18 days; assay type: organism-based; conditions: in vivo, 432 h, time 18 day
# A549 [31] = assay: Inhibition of colony formation in human Trametinib-resistant A549 cells with high-OXPHOS harboring KRAS G12S mutant incubated for 10 to 14 days in presence of trametinib by crystal violet staining based analysis; assay type: functional, cell-based; conditions: time 10-14 day
structure (smiles),measurement,setting,value
Cc1c(C(=O)N2CCN(Cc3ccc(OCC(F)(F)F)cc3)CC2)nnn1Cc1ccc(C(=O)Nc2ccc(C(F)(F)F)cc2)nc1,half-life,[1],2.5 h
same,Activity,NCI-H441 [2],Active
same,Cmax,[3],425 ng/mL
same,Activity,NCI-H460 [4],2.87%
same,Activity,[5],Non-Toxic
same,IC50,Cytochrome P450 2C19,> 50 µM
same,Activity,[6],Non-Toxic
same,Activity,A549 [7],43.4%
same,inhibition,NCI-H460 [8],77.6%
same,inhibition,NCI-H460 [9],Dose-Dependent Effect
same,IC50,Cytochrome P450 2C9,14.6 µM
same,Activity,[10],Non-Toxic
same,inhibition,NCI-H441 [11],Active
same,Activity,NCI-H441 [12],30.9%
same,IC50,Cytochrome P450 3A4,> 50 µM
same,inhibition,NCI-H460 [13],10.4%
same,Vd,[14],9.34 L/kg
same,Activity,[15],Non-Toxic
same,MRT last at 24 h,[16],1.5 h
same,inhibition,NCI-H441 [17],Dose-Dependent Effect
same,inhibition,A549 [18],Active
same,inhibition,NCI-H441 [19],Dose-Dependent Effect
same,Activity,NCI-H441 [20],7.88%
same,Activity,[21],Non-Toxic
same,inhibition,NCI-H460 [22],Dose-Dependent Effect
same,IC50,NCI-H460 [23],0.005 µM
same,inhibition,NCI-H441 [24],Dose-Dependent Effect
same,Activity,A549 [25],31%
same,inhibition,NCI-H441 [26],Dose-Dependent Effect
same,Activity,NCI-H460 [27],7.08%
same,half-life,[28],2.3 h
same,Cmax,[29],618 ng/mL
same,Activity,[30],Non-Toxic
same,inhibition,A549 [31],Active
